# Tests used:
# [1] = Dissociation constant, pKa of the compound by UV spectrometric titration method; format: physicochemical
# [2] = target: T1, Toll-like receptor 7 (Homo sapiens, UniProt Q9NYK1); assay: Antagonist activity at human TLR7 expressed in human PBMC cells assessed as inhibition of ssRNA stimulated IFNalpha level preincubated for 30 mins followed by stimulation and measured after 20 hrs by AlphaLISA method; format: cell-based
# T1 sequence (Q9NYK1 whole entry): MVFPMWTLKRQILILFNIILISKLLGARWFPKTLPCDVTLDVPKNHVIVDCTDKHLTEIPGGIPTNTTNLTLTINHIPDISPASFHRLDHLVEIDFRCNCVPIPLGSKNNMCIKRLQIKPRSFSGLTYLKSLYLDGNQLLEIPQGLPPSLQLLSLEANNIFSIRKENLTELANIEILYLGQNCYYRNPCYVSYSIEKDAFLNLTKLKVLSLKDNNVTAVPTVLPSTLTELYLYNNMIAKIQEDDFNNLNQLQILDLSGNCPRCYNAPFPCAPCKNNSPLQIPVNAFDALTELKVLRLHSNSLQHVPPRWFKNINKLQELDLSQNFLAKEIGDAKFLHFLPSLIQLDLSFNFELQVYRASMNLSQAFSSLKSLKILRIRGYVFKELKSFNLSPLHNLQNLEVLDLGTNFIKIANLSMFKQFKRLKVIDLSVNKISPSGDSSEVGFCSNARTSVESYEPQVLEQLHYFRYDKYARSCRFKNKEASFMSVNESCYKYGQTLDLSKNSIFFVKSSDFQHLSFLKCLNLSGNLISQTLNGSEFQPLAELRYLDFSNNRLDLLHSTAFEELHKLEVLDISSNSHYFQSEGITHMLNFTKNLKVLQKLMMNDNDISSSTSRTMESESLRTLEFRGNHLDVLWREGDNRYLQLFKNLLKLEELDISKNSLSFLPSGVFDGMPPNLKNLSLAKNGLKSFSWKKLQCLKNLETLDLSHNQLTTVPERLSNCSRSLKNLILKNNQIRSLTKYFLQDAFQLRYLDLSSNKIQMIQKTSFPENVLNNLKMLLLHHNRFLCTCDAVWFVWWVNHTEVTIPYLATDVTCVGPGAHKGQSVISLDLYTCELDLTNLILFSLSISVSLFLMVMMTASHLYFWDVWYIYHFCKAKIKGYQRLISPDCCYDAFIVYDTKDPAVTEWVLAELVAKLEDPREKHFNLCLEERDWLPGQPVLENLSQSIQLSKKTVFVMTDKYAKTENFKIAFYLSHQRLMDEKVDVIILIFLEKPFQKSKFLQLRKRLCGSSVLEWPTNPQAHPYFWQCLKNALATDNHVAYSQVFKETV
# [3] = MRT in C57BL/6 mouse at 3 mg/kg, po or 1 mg/kg, iv administered as cassette dose measured upto 24 hrs by LC/MS/MS analysis; format: ADME, organism-based; conditions: in vivo
# [4] = Dose normalized AUC in C57BL/6 mouse at 3 mg/kg, po and 1 mg/kg,iv administered as cassette dose measured upto 24 hrs by LC/MS/MS analysis; format: ADME, organism-based; design: dose 3 mg/kg, time <=24; conditions: in vivo
# [5] = target: Cytochrome P450 3A4 (Homo sapiens, UniProt P08684); assay: Inhibition of CYP3A4 (unknown origin); format: ADME
# [6] = target: T2, Toll-like receptor 8 (Homo sapiens, UniProt Q9NR97); assay: Antagonist activity at human TLR8 expressed in human PBMC cells assessed as inhibition of ssRNA stimulated TNF level preincubated for 30 mins followed by stimulation and measured after 20 hrs by multiplate reader assay; format: cell-based
# T2 sequence (Q9NR97 whole entry): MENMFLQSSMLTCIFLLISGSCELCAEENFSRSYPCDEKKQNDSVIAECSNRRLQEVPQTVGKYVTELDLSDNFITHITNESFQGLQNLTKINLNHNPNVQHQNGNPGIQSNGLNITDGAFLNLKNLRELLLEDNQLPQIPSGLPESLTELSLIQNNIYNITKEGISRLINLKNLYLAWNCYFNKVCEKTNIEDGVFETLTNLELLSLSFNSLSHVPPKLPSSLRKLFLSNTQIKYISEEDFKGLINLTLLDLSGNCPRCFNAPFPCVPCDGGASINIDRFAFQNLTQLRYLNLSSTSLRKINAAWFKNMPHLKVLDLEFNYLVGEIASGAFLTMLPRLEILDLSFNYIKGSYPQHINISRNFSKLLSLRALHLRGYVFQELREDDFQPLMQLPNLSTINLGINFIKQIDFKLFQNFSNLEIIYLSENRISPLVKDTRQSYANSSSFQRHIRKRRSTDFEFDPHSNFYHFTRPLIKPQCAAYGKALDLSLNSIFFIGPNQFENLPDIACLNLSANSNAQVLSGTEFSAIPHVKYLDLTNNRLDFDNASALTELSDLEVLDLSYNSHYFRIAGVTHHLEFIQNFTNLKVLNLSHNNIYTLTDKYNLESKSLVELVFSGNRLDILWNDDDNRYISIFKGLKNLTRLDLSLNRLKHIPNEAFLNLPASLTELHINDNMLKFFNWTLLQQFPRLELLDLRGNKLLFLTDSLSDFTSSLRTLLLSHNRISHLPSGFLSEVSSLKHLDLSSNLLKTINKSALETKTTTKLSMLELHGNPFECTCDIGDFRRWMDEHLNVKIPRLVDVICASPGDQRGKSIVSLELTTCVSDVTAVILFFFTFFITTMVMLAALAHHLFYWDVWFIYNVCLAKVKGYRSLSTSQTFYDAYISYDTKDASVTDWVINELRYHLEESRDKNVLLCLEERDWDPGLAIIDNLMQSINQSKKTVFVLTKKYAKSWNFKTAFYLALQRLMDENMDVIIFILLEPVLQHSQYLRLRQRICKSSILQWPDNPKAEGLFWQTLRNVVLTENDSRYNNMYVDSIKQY
# [7] = Octanol/water partition coefficient, logD of compound at pH 7.4 measured after 4 hrs by shake flask method; format: physicochemical
# [8] = Dose normalized Cmax in C57BL/6 mouse at 3 mg/kg, po and 1 mg/kg, iv administered as cassette dose measured upto 24 hrs by LC/MS/MS analysis; format: ADME, organism-based; conditions: in vivo
# [9] = Oral bioavailability in C57BL/6 mouse at 3 mg/kg administered as cassette dose measured upto 24 hrs by LC/MS/MS analysis; format: ADME, organism-based; conditions: in vivo
# [10] = target: T2, Toll-like receptor 8; assay: Antagonist activity at human TLR8 expressed in Drosophila S2 by TR-FRET assay
# [11] = Clearance in C57BL6 mouse at 3 mg/kg, po or 1mg/kg, iv administered as cassette dose measured upto 24 hrs by LC/MS/MS analysis; format: ADME, organism-based; conditions: in vivo
# [12] = target: Voltage-gated inwardly rectifying potassium channel KCNH2 (Homo sapiens, UniProt Q12809); assay: Inhibition of human ERG; format: toxicity
# [13] = Volume of distribution at steady state in C57BL/6 mouse at 3 mg/kg, po or 1 mg/kg, iv administered as cassette dose measured upto 24 hrs by LC/MS/MS analysis; format: ADME, organism-based; conditions: in vivo, read-out: Vdss
# [14] = Permeability of compound in dog MDCK cells; format: ADME, cell-based, Canis lupus familiaris; conditions: read-out: permeability
# [15] = target: Toll-like receptor 4 (Homo sapiens, UniProt O00206); assay: Antagonist activity at human TLR4 expressed in human PBMC cells assessed as inhibition of LPS stimulated TNF level preincubated for 30 mins followed by stimulation and measured after 20 hrs by multiplate reader assay; format: cell-based
# [16] = target: T3, Toll-like receptor 9 (Homo sapiens, UniProt Q9NR96); assay: Antagonist activity at human TLR9 expressed in human PBMC cells assessed as inhibition of ODN2216 stimulated IFNalpha level preincubated for 30 mins followed by stimulation and measured after 20 hrs by AlphaLISA method; format: cell-based
# T3 sequence (Q9NR96 whole entry): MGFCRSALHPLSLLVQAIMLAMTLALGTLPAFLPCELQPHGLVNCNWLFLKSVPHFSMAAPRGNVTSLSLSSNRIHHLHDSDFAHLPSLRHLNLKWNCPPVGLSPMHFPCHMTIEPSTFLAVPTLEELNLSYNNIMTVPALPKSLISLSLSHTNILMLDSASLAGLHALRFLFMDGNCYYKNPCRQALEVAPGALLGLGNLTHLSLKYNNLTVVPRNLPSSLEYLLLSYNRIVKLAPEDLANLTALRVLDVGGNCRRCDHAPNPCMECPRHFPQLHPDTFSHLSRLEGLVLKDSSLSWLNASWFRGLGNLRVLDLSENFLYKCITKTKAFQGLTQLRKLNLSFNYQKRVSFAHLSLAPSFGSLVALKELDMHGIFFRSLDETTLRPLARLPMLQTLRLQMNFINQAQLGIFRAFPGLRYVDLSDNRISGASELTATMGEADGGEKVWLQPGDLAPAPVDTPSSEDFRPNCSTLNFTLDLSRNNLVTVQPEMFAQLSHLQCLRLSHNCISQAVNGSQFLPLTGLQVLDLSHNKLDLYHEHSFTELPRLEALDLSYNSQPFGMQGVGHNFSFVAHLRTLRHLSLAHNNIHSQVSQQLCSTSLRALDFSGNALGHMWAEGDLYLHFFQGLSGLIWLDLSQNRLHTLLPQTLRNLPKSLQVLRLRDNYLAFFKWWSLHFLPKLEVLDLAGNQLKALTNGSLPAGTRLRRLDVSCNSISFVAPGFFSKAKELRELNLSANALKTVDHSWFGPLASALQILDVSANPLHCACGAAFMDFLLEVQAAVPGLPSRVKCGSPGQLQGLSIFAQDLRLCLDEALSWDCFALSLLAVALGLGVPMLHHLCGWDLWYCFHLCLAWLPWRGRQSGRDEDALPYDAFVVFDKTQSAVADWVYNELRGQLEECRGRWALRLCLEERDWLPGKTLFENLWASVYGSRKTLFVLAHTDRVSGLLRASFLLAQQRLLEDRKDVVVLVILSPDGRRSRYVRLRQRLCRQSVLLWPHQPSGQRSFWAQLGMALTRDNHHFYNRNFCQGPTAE
# Chain of Cytochrome P450 3A4 (P08684 whole entry): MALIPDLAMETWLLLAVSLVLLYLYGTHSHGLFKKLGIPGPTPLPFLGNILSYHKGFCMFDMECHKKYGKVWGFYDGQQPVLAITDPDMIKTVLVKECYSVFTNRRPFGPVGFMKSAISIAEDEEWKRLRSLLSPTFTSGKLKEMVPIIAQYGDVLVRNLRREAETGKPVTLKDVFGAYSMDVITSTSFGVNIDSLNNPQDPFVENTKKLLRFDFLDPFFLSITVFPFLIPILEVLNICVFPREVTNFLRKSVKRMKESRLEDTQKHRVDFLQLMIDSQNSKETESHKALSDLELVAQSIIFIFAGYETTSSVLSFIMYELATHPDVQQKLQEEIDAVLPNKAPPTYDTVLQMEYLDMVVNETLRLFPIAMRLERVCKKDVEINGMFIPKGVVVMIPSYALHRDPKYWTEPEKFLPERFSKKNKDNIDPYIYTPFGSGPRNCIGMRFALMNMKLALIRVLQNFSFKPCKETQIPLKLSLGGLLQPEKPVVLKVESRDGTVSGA
# Chain of Voltage-gated inwardly rectifying potassium channel KCNH2 (Q12809 whole entry): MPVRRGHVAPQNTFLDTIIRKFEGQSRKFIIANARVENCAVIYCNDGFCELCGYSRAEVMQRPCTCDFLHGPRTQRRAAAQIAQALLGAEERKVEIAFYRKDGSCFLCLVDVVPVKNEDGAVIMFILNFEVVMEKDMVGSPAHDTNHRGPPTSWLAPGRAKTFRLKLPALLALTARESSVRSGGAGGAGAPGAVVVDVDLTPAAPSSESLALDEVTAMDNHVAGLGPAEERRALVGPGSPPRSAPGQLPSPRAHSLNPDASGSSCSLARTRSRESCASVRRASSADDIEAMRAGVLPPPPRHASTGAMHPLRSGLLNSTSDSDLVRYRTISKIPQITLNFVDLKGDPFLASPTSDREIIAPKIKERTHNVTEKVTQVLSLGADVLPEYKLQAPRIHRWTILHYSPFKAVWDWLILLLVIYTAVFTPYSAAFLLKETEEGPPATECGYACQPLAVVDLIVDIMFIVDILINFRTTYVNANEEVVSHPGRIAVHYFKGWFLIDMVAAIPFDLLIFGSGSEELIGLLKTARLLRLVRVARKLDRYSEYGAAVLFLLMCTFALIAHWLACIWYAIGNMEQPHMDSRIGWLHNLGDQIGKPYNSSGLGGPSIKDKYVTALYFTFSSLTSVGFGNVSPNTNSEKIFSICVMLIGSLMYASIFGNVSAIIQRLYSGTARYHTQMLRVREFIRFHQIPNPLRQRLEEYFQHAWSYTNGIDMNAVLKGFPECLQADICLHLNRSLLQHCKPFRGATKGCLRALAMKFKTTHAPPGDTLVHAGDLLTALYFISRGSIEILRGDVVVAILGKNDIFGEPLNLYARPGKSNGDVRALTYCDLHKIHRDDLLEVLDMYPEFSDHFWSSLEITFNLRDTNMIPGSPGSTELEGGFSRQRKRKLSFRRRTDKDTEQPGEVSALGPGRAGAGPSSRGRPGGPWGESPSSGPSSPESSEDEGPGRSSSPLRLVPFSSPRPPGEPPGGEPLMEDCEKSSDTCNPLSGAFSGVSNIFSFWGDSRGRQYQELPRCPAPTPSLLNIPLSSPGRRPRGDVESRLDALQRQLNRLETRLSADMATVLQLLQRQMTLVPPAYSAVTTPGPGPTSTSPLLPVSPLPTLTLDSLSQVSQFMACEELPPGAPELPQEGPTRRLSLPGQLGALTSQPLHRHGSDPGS
# Chain of Toll-like receptor 4 (O00206 whole entry): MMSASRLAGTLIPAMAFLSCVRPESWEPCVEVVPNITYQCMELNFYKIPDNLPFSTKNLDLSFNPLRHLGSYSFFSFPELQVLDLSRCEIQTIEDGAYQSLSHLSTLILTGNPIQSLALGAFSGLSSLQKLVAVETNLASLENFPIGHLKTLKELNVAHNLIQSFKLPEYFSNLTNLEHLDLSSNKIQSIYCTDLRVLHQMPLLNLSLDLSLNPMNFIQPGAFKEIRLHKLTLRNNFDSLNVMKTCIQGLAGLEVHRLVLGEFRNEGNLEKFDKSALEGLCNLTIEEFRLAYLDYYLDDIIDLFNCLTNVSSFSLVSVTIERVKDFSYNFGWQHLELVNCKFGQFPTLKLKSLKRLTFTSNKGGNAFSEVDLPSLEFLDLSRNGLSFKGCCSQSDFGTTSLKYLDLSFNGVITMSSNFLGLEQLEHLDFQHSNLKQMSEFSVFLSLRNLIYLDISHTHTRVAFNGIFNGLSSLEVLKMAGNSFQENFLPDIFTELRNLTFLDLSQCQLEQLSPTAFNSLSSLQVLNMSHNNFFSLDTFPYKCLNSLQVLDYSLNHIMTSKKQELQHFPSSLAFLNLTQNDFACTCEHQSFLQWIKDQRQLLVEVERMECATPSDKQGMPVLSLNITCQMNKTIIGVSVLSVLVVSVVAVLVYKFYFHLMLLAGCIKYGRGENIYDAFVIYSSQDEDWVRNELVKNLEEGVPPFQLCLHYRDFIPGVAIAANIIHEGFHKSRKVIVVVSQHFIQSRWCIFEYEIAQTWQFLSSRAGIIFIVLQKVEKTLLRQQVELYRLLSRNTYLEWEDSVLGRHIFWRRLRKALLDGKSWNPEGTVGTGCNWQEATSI
SMILES,pKa [1],IC50 [2] [nM],IC50 [6] [nM],IC50 [10] [nM],other results
Cc1cc2c(NC3CCN(C)CC3)n[nH]c2cc1-c1ccnc(C)c1F,3.9,1,–,–,–
Cc1nccc(-c2cc3[nH]nc(NC4CCN(C)CC4)c3cc2C2CC2)c1F,3.9,0.39,0.08,3.6,MRT [3]: 1.5 h; AUC [4]: 485 nM·h/mg/kg; IC50 [5]: > 25000 nM; logD at 4 h [7]: 2.5; Cmax/dose [8]: 113 nM/mg/kg; bioavailability [9]: 53%; clearance [11]: 49 mL/min/kg; IC50 [12]: 11000 nM; Vd [13]: 4.4 L/kg
Cc1cc(-c2cc3[nH]nc(N[C@H]4CCNC[C@@H]4F)c3cc2C2CC2)cc(C)n1,6.7,9,–,–,–
Cc1nccc(-c2cc3[nH]nc(N[C@H]4CCNC[C@@H]4F)c3cc2C2CC2)c1F,3.9,0.1,–,–,MRT [3]: 1.8 h; AUC [4]: 635 nM·h/mg/kg; IC50 [5]: 4500 nM; logD at 4 h [7]: 2.5; Cp(f)/dose [8]: 155 nM/mg/kg; bioavailability [9]: 43%; clearance [11]: 28 mL/min/kg; IC50 [12]: 19000 nM; Vd [13]: 3.1 L/kg
COc1cc2cn[nH]c2cc1-c1ccncc1,5.4,–,> 9300,51,Papp [14]: 38 ×10⁻⁶ cm/s
COc1cc2c(C(=O)N3CCN(C)CC3)n[nH]c2cc1-c1ccnc(C)c1F,3.7,> 980,1.2,14,–
COc1cc2cc[nH]c2cc1-c1ccncc1,5.8,1700,3600,2,IC50 [15]: > 10000 nM; IC50 [16]: > 3600 nM; Papp [14]: 33 ×10⁻⁶ cm/s
COc1cc2c(C(=O)N3CCN(C)CC3)n[nH]c2cc1-c1ccncc1,5.3,220,–,–,–

# Further lines, with some results ahead:
pKa [1],IC50 [2] [nM],IC50 [6] [nM],IC50 [10] [nM],SMILES,other results
4,–,–,–,COc1cc2c(NC3CCN(C)CC3)n[nH]c2cc1-c1ccnc(C)c1F,–
3.4,11,–,–,COc1cc(-c2cc3[nH]nc(NC4CCN(C)CC4)c3cc2OC)ccn1,–
5.2,3,–,–,COc1cc2c(NC3CCN(C)CC3)n[nH]c2cc1-c1ccncc1,–
6.7,–,–,–,COc1cc2c(NC3CCN(C)CC3)n[nH]c2cc1-c1cc(C)nc(C)c1,–
6.7,–,2.5,23,COc1cc2c(C(=O)N3CCN(C)CC3)n[nH]c2cc1-c1cc(C)nc(C)c1,–

# From ChEMBL document CHEMBL5046316, “Structure-Based Optimization of a Fragment-like TLR8 Binding Screening Hit to an In Vivo Efficacious TLR7/8 Antagonist” (ACS Med Chem Lett, 2022)
